In US9539226B2, “Composition containing serine as an active ingredient for the prevention and treatment of fatty liver diseases, and the use thereof” (SNU R&DB FOUNDATION, priority 2010, dated 2017):

How the values were obtained:
H4IIEC3 cell = experiment: Ethanol induced lipid accumulation in H4IIEC3 (Nile red staining); format: cell-based, rodent; settings: H4IIEC3 cells, ethanol plus L-serine (0.1, 1, 10 mM tested; concentration of this value not stated), 48 hrs; ethanol control 63.4 unit; P<0.05
Protocol: In order to investigate the inhibitory effect of the test sample on ethanol induced lipid accumulation in H4IIEc3, following experiment was performed according to the modified procedure disclosed in literature (Yin et al., Honokiol reverses alcoholic fatty liver by inhibiting the maturation of sterol regulatory element binding protein-1c and expression of its downstream lipogenesis genes: Toxicol. Appl. Pharmacol. 236:124-130, 2009). H4IIEC 3 cell, a rodent liver cancer cell line, was procured from ATCC (American Type Culture Collection) and used in the experiment. The cell was cultured in RPMI1640 medium supplemented with 10% FBS, 100 U/ml of penicillin, […] of streptomycin at 37° C. in 5% CO2 incubator and 1 ml of the cell was distributed to 96-well (1×10^4/ml) to be stabilized until the cell had grown completely for 12-16 hours in 5% CO2 incubator. The cell was treated with ethanol or combination with ethanol with various concentration of L-serine (0.1 mM, 1 mM, and 10 mM) to incubate for 48 hrs. […] The inhibition of lipid accumulation was determined by determining the fluorescence intensity of the Nil red changed by accumulated lipid induced by alcohol 5 mins after Nile red treatment through the observation with microscopy or microplate reader at 480 nm/580 nm.

[1] = system: acute fatty liver induced mouse model fed by alcohol; experiment: Fatty liver formation in acute fatty liver induced mouse model fed by alcohol (triglyceride level); format: in vivo; settings: high dose group, 200 mg/kg L-serine orally twice plus ethanol
Protocol: In order to investigate the inhibitory effect on the formation of fatty liver in acute fatty liver induced mouse model fed with alcohol, following experiment was performed according to the modified procedure disclosed in literature (Song et al., S-Adenosylmethione protects against acute alcohol induced hepatotoxicity in mice, J. Nutr. Biochem. 14:591-597, 2003). Male C57/BL mouse (19-21 g) procured from Central Lab. Animal Inc. (www.labanimal.co.kr) was bred according to GLP (Good Laboratory Practice) guideline in animal breeding room providing freely accessible water and solid feed, and acclimated with environment for 7 days before use. The breeding room was controlled by automatic light system from 8:00 A.M. to 8:00 P.M, for 12 hours with adjusting the temperature to 24° C. and the mouse was freely let to access to water and feed. […] The ALT (s-GPT) enzyme activity was determined by analysis kit (YD diagnostics Inc, www.yd-diagnostics.com) according to the Reitman-Frankel method disclosed in preceding literature. The level of triglyceride in […] was determined by analysis kit analysis kit (Cat. No. TR0100, Sigma Aldrich Corp.) and the result was shown in FIG. 2.

SREBP1 = SREBP1 expression by Western blot in acute fatty liver induced mouse model fed by alcohol; format: in vivo; settings: FIG. 3
Protocol: (§1) In order to confirm whether the anti-steatotic effects of L-serine on alcoholic fatty liver is caused by the inhibition of SREBP1 activity or not, following experiment was performed according to the modified procedure disclosed in literature (Yin et al., Magnolia officinalis reverses alcoholic fatty liver by inhibiting the maturation of sterol regulatory element binding protein-1c, J. Pharmacol. Sci. 109:486-495, 2009). The expression of SREBP1 and its target gene product FAS were determined by the standard Western blot analysis using specific antibodies.

FAS = FAS expression by Western blot in acute fatty liver induced mouse model fed by alcohol; format: in vivo; settings: FIG. 3
Protocol: as §1

chronic ethanol fed rats = experiment: Hepatotoxicity and fatty liver in chronic ethanol fed rats (serum ALT, liver triglyceride); format: in vivo; settings: wistar rat, ethanol diet with L-serine for 4 weeks (dose group not stated)
Protocol: In order to investigate the effects of L-serine on the hepatotoxicity and fatty liver in chronic ethanol fed rats, ALT (s-GPT) enzyme activity in the serum and triglyceride level in the liver was determined according to the modified procedure disclosed in literature (Lee et al., Effect of Chlorella vulgaris on lipid metabolism in wistar rats fed high fat diet, Nut. […]. 2:204-210, 2008). Male wistar rat (170-190 g) procured from Central Lab. Animal Inc. (www.labanimal.co.kr) was bred according to GLP (Good Laboratory Practice) guideline in animal breeding room providing freely accessible water and solid feed, and acclimated with environment for 7 days before use. The breeding room was controlled by automatic light system from 8:00 A.M. to 8:00 P.M, for 12 hours with adjusting the temperature to 24° C. During the experiment, the rat was fed with liquid diet (Standard […].com) for providing appropriate calorie. […] The ALT (s-GPT) enzyme activity was determined by analysis kit (YD diagnostics Inc, www.yd-diagnostics.com) according to the Reitman-Frankel method disclosed in preceding literature. The level of triglyceride in the rat liver was determined by analysis kit analysis kit (Cat. No. TR0100, Sigma Aldrich Corp.) and the result was shown in FIG. 4.

**Q.** Which results are given for `N[C@@H](CO)C(=O)O` [L-serine]?
**A.** fluorescence intensity of Nile red (lipid accumulation) (H4IIEC3 cell): 29 unit; triglyceride level reduced by ([1]; C57/BL mouse): 58.5%; triglyceride level ([1]; ethanol treatment group 99.7 mg/g): 52.4 mg/g; SREBP1 activation (SREBP1): inhibited; FAS activation (FAS): inhibited; hepatic triglyceride level (chronic ethanol fed rats; liver, ethanol group 91.69 mg/g liver): 53.4 mg/g liver; ALT enzyme activity (chronic ethanol fed rats; serum, ethanol group 42.5 U/L): 24.67 U/L
